According to patent publication US5770617A, “Terbenzimidazoles useful as antifungal agents” (Rutgers, The State University of New Jersey, priority 1997, dated 1998):

Experiments:
[1] = target: T1, Aspergillus topoisomerase I (Aspergillus nidulans, UniProt Q5BGS7); assay: Topoisomerase I cleavage assay, Aspergillus enzyme; assay type: biochemical; conditions: DNA cleavage assay
T1 construct: about 105 kDa by phosphate transfer
T1 sequence (Q5BGS7 1-871): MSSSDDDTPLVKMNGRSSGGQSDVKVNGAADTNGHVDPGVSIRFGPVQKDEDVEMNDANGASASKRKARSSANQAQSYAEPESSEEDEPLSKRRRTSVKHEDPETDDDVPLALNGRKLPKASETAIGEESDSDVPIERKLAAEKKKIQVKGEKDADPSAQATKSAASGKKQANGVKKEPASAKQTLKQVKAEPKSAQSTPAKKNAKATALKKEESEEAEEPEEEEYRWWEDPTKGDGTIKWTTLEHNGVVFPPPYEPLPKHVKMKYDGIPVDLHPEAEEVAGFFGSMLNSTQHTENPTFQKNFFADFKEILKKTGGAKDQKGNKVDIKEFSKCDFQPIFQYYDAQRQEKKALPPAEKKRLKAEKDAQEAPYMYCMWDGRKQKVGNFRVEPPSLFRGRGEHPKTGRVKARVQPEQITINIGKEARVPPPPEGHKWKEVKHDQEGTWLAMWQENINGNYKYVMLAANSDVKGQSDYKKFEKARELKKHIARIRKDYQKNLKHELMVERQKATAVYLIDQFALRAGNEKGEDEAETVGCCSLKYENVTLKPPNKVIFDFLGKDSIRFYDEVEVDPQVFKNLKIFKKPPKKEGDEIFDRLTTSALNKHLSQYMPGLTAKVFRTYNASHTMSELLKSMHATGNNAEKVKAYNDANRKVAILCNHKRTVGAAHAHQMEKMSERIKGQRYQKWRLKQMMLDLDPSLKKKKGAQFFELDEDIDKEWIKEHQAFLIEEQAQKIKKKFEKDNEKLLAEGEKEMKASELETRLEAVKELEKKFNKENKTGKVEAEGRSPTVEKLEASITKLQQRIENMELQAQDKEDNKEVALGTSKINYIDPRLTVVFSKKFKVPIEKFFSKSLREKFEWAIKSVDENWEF
Protocol: Two liters of YG medium (0.5% yeast extract and 2% glucose) were inoculated with approximately 5×10^8 conidia/ml. After 16 hours of growth at 37° C., the mycelia were collected, washed with Buffer I (50 mM Tris-HCl, pH 7.7, 1 mM EDTA, 1 mM EGTA, 10% glycerol, 1 mM phenylmethylsulfonyl fluoride and 1 mM 2-mercaptoethanol), and quickly chilled in liquid nitrogen. The frozen mycelia (approximately 20 grams) were ground to powder and resuspended in 300 ml of Buffer I. The lysate was centrifuged at 10K rpm in a Sorval HB3 Rotor for 15 minutes to remove cell debris. The supernatant was made 6% in polyethylene glycol (v/v) and 1M NaCl. After one hour on ice with gentle stirring, the solution was centrifuged at 14K rpm in a Sorvall Rotor for 30 minutes to remove nucleic acids.
Subsequent steps in purification were the same as described previously for purification of recombinant human DNA topoisomerase I (B. Gatto et al., Cancer Res., 56, 2795 (1996)). Briefly, the supernatant was chromatographed directly onto a hydroxyapatite Bio-gel HTP (BioRad Laboratories, Richmond, Calif.) column. Fractions containing relaxation activity were pooled, diluted and then loaded onto a BioRex70 column (BioRad Laboratories, Richmond, Calif.). The column was developed with a linear gradient from 0.2 to 1M KCl. The peak fractions were pooled and dialyzed overnight at 4° C. against 30 mM potassium phosphate, 50% glycerol (v/v), 0.5 mM EDTA, and 1 mM DTT. Recombinant human topoisomerase I was purified from Escherichia coli BL21 (DE3) harboring PET1B as described previously (Gatto et al., Cancer Res., 56, 2795 (1996)).
DNA topoisomerase I cleavage assays were performed as described by Y.-H. Hsiang et al., J. Biol. Chem., 260, 14873 (1985). YEpG DNA was linearized with BamHI and then 3 '-end-labeled with Klenow polymerase and α[-^32 P]dCTP. Following phenol extraction and ethanol precipitation, the labeled DNA was resuspended in 10 mM Tris, pH 8.0, and 1 mM EDTA. The DNA cleavage assay was done in a reaction mixture (20 μl) containing 40 mM Tris-HCl, pH 7.8, 100 mM KCl, 10 mM MgCl2, 0.5 mM dithiothreitol, 0.5 mM EDTA, 30 μg/ml bovine serum albumin, 20 ng of labeled YEpG DNA, and […] of Aspergillus or human topoisomerase I diluted to various extents. Following incubation at 23° C. for 15 minutes, the reactions were terminated by the addition of SDS (final concentration 1%) and proteinase K (final concentration 200 μg/ml). Proteinase K treatment continued at 37° C. for another 1 hour. The terminated reactions were either alkali-denatured and then loaded (alkaline loading) or loaded directedly in neutral loading buffer (neutral loading) onto a 1% agarose gel in neutral TPE electrophoresis solution. Gel drying and autoradiography were performed as described by Hsiang et al., cited above.

[2] = tested on: yeast cells expressing human topoisomerase I; assay: Yeast cytotoxicity assay, human topoisomerase I; assay type: cell-based, S. cerevisiae
Description: (§1) The topoisomerase I-specific in vivo cytotoxicity assay was adapted from A. M. Knab et al., J. Biol. Chem., 268, 22322 (1993). In this system, various topoisomerase I genes or cDNAs cloned into the single-copy yeast plasmid vector (YCpGAL1; Knab et al., cited above) are expressed under the control of the GAL1 promoter in the JN2-134 strain of S. cerevisiae (MAT, rad52::Leu2, trp1, ade2-1, his7, ura3-52, ise1, top1-1, and leu2; M. A. Bjornsti et al., Cancer Res., 49, 6318 (1989)). The topoisomerase I gene or cDNA constructs in the vector are, respectively, the wild-type yeast topoisomerase I gene (YCpGAL-ScTOP1; need cite (1989)), a nonfunctional topoisomerase I gene where the active site tyrosine-727 is mutated to phenylalanine (YCPGAL1-Sctop1Y727; A. M. Knab et al., J. Biol. Chem., 268, 22322 (1993)), and the wild-type human topoisomerase I cDNA (YCp-GAL-hTOP1; M. A. Bjornsti et al., Cancer Res., 49, 6318 (1989)).
(§2) To qualitatively test the cytotoxicity and the topoisomerase I specificity of the drugs, yeast cells containing the specified plasmid were grown in dropout medium supplemented with uracil, 2% galactose, and the drug being tested.

[3] = tested on: yeast cells expressing yeast topoisomerase I; assay: Yeast cytotoxicity assay, yeast topoisomerase I; assay type: cell-based, S. cerevisiae
Description: as §1, §2

[4] = tested on: yeast cells expressing nonfunctional yeast topoisomerase I; assay: Yeast cytotoxicity assay, nonfunctional yeast topoisomerase I; assay type: cell-based, S. cerevisiae
Description: as §1, §2

[5] = target: T2, mammalian DNA topoisomerase I (Homo sapiens, UniProt P11387); conditions: cited from earlier work
T2 sequence (P11387 1-765): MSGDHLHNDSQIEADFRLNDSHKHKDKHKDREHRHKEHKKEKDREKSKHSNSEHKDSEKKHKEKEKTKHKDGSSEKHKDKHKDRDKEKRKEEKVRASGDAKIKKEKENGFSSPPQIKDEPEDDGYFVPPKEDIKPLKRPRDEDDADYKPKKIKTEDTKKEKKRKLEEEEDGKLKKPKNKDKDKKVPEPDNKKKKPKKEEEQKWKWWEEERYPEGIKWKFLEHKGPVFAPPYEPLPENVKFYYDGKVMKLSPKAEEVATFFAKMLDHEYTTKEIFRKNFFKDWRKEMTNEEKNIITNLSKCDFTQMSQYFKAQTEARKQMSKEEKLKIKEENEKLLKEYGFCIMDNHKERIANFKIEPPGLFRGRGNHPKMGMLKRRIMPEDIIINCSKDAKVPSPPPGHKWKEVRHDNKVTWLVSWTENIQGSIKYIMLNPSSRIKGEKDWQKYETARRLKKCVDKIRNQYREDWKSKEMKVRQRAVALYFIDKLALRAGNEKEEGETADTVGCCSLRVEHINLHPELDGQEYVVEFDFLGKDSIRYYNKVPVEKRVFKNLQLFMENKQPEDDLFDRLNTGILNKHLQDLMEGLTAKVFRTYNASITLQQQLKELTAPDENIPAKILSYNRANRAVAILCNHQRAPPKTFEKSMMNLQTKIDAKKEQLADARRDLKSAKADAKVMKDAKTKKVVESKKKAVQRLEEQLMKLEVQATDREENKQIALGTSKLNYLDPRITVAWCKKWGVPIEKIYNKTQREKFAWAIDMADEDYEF

## COc1ccc(-c2nc3ccc([N+](=O)[O-])cc3[nH]2)cc1 [QS/II/9]
[1]
  inhibition (poisoning) of Aspergillus topoisomerase I, in words: None of the mono-benzimidazoles, including QS/II/50, QS/II/51, QS/II/59A, an QS/II/9, exhibited any inhibitory effect
[2]
  cytotoxicity to yeast cells expressing human topoisomerase I: highly cytotoxic
[3]
  cytotoxicity to yeast cells expressing functional yeast topoisomerase I: not cytotoxic
[4]
  cytotoxicity to yeast cells expressing nonfunctional yeast topoisomerase I: not cytotoxic
[5]
  inhibition (poisoning) of mammalian DNA topoisomerase I, previous studies: inhibitors (poisons)
